Source: patent US9827184B2, “Peelable transparent diamond nail-care coat” (LES FINS NETWORK TECHNOLOGY CO.,LTD., priority 2015, dated 2017)

How the values were obtained:
Experiment in all cases: MTT microplate growth inhibition (MIC50) in MH culture medium
Format in all cases: cell-based
Details in all cases: 96-well plate, 37° C., 24 h, OD 570 nm, unit not given, test concentrations given in μg·ML^−1
[1] = test system: epidermophyton floccosum
Experimental: (§1) Bacteria (trichophylon rubrum, trichophyton mentagrophytes and epidermophyton fioccosum) are suspended in an MH culture medium with a dispersion concentration of about 10^5 cfu·ML^−1, and bacterium solution is added onto a 96-well plate (100 μL of the bacterium solution is added in each well); and the culture medium is taken as blank control, DMSO is taken as negative control for replacing a test substance, and itraconazole (Xian-Janssen Pharmaceutical Co., Ltd.) is taken as positive control. […] The 96-well plate is placed in an incubator at 37° C. and cultured for 24 h, then 25 μL of PBS containing 4 mg of MTT per mL is added in each well and cultured for 4 h under the same condition, and 100 μL of SDS lysate (95 mL of tri-distilled water+10 g of SDS+5 mL of isopropanol+0.1 mL of concentrated hydrochloric acid) is added in each well and then cultured for 12 h. An OD value is measured by a microplate reader at 570 nm, and an inhibition percent is calculated as follows: [formula]

[2] = test system: trichophyton mentagrophytes
Experimental: as §1

[3] = test system: trichophyton rubrum
Experimental: as §1

50% minimum inhibitory concentration (MIC50) for epidermophyton floccosum [1] | 50% minimum inhibitory concentration (MIC50) for trichophyton mentagrophytes [2] | 50% minimum inhibitory concentration (MIC50) for trichophyton rubrum [3] | Compound
0.82 | 0.60 | 0.63 | COc1ccc(-c2cc(=O)c3cc(O)c(OC)c4c3n2OC2OC(C)=C(O)C=C2C4)cc1 (stereo not drawn) [compound of formula I]
0.65 | 0.70 | 0.63 | CCC(C)n1ncn(-c2ccc(N3CCN(c4ccc(OCC5COC(Cn6cncn6)(c6ccc(Cl)cc6Cl)O5)cc4)CC3)cc2)c1=O (stereo not drawn) [itraconazole]
